Reference: patent US11241440B2, “Dihydrooxadiazine compounds for treating infections and cancer” (VALORALIA I MÁS D, SL, priority 2016, dated 2022)
Like-named read-outs stand apart in the source and are kept apart here.

Experiments:
Aspergillus flavus = test: EUCAST broth dilution antifungal susceptibility test (MIC); assay type: cell-based; settings: 100% inhibition, 24 hours at 35° C., dilution range 64 to 0.12 mg/l
Protocol: (§1) Filamentous fungi and yeasts strains, from clinical origin, were supplied by Microbiology Service from The Princess Hospital, Madrid. They are detailed in Table III. Filamentous fungi and yeast cells suspensions in distilled water was prepared from a culture of 24-48 h, depending on species, in Sabouraud agar. Each suspension was adjusted to a fixed size inoculum of 1-5×10^8 CFU/ml with a spectrophotometer (Ferraro, M J National Committee for Clinical Laboratory Standards. 2000). Antifungal susceptibility tests were developed following the standardized methodology detailed by the European Committee on Antimicrobial Susceptibility Testing (EUCAST) documents 7.2 (method for the determination of broth dilution minimum inhibitory concentrations of antifungal agents for yeasts EDef 7.2) and 9.2 (Method for the determination of broth dilution minimum inhibitory concentrations of antifungal agents for conidia forming foulds). The compound was dissolved in DMSO and diluted with RPMI plates with 2% glucose to pH 7 with MOPS buffer. […] Plates were inoculated with a yeast suspension or filamentous fungal spores (1-5×10^5 cls/ml). The results were evaluated after 24 hours incubation at 35° C. and absorbance reading at 530 nm.

Candida parapsilosis = test: as above; assay type: cell-based; settings: 50% inhibition, 24 hours at 35° C., dilution range 64 to 0.12 mg/l
Protocol: as §1

Aspergillus terreus = test: as above; assay type: cell-based; settings: 100% inhibition, 24 hours at 35° C., dilution range 64 to 0.12 mg/l
Protocol: as §1

Scedosporium prolificans = test: as above; assay type: cell-based; settings: 100% inhibition, 24 hours at 35° C., dilution range 64 to 0.12 mg/l
Protocol: as §1

Aspergillus fumigatus = test: as above; assay type: cell-based; settings: 100% inhibition, 24 hours at 35° C., dilution range 64 to 0.12 mg/l
Protocol: as §1

HSV-2, strain G = settings: compound 2 μM
N. cyriacigeorgica = test: Kirby-Bauer disk diffusion susceptibility test; assay type: cell-based; settings: N. cyriacigeorgica; 100 μg/disc; zone of inhibition
[1] = test system: all species tested (pathogenic bacteria); assay type: cell-based
HIV virus (NL4.3-Ren) = test: microbe, parasite or virus in culture; assay type: cell-based; settings: for Viral replication (%): relative to DMSO control, cells not given
[2] = test system: XGF-N (PRG-NIA3 deficient in the envelope glycoprotein gG); assay type: cell-based, porcine pseudorabies virus (PRV)
NCI-H1299 = test: MTT assay; assay type: cell-based; settings: Homo sapiens, 48 hours
[3] = test system: HIV virus non-recombinant wild type (NL4.3); test: Inhibition of non-recombinant wild type HIV; assay type: cell-based; settings: Human immunodeficiency virus 1
[4] = test system: equine herpes virus type 1 (EHV-1); test: Viral titer reduction; assay type: cell-based; settings: 2 μM
N. carnea = test: Kirby-Bauer disk diffusion susceptibility test; assay type: cell-based, Nocardia carnea; settings: N. carnea; 100 μg/disc; zone of inhibition
M. fortuitum = test: Kirby-Bauer disk diffusion susceptibility test; assay type: cell-based; settings: M. fortuitum; 100 μg/disc; zone of inhibition
[5] = Cellular viability, CellTiter Glo (Table V, cells not stated); assay type: cell-based; settings: human, relative to DMSO control
Protocol: All assays for assessing anti-HIV activity were taken in parallel to determine cellular viability of the culture in the presence or absence of different concentrations of the isolated molecule. It was followed exactly the same methodology as in the anti-HIV assay except with the addition of complete DMEM medium instead of supernatant viral, in the same proportion, and the detection of the viability was performed with the viability detection kit CellTiter Glo (Promega), following manufacturer instructions. Viability is directly proportional to the luciferase activity obtained. All data are expressed as percentage relative to a control with DMSO at the same concentration. Antiviral activity and toxicity curves were performed to the compound at different concentrations.

A. baumannii = test: Kirby-Bauer disk diffusion susceptibility test; assay type: cell-based, Acinetobacter baumannii; settings: A. baumannii; 100 μg/disc; zone of inhibition
HSV-1, strain F = settings: compound 2 μM
SK-UT-1 = test: MTT assay; assay type: cell-based; settings: Homo sapiens, 48 hours
M. chelonae = test: Kirby-Bauer disk diffusion susceptibility test; assay type: cell-based; settings: M. chelonae; 100 μg/disc; zone of inhibition
[6] = test system: recombinant herpesvirus FTKGF; test: Fluorescence antiviral assay in Vero cells; assay type: cell-based, herpes simplex 1 virus; settings: 0.01 MOI, 48 hours
Protocol: In the antiviral assay a special culture plate for fluorescence assays has been used, cultivated with Vero cells (200,000 cells/ml) and infected with the recombinant herpesvirus FTKGF at 0.01 MOI (Multiplicity of infection). For the standard curve (inhibition curve pattern), increasing concentrations of a known inhibitor of HSV infection, the phosphonoacetic acid (PAA), from 0 to 200 μg/ml, were used. The compound was tested at concentrations of […] over the virus. After 48 hours, the fluorescence intensity of FTKGF (reduction in fluorescence levels) in the plate reader Synergy HT Microplate Reader was measured.

[7] = test system: HIV virus (NL4.3-Ren) and HIV virus pseudotyped with the envelope of VSV (NL4.3-VSV-Luc); test: Virus entry test, HIV and VSV-pseudotyped HIV in parallel; assay type: cell-based; settings: NL4.3-Ren and NL4.3-VSV-Luc in parallel
[8] = test system: FTKGF (deficient in thymidine kinase protein); settings: compound 2 μM
CAL33 = test: MTT assay; assay type: cell-based

In the case of `CCCCCC1=NN(C(=O)CCO)OC(CCCCC)C1` (centres unmarked) [Compound, 1-(4,6-dipentyl-5,6-dihydro-2H-1,2,3-oxadiazin-2-yl)-3-hydroxypropan-1-one], the “MIC (minimum inhibitory concentration)” value (Aspergillus flavus) is reported as 1, the “MIC (minimum inhibitory concentration)” value (Candida parapsilosis) is reported as 0.5 and the “MIC (minimum inhibitory concentration)” value (Aspergillus terreus) is reported as 0.25. For the same molecule, the “MIC (minimum inhibitory concentration)” value (Scedosporium prolificans) was 0.5, the “MIC (minimum inhibitory concentration)” value (Aspergillus fumigatus) was 0.5 and the “reduction of the titer” value (HSV-2, strain G) was 3 logarithms. For the same molecule, the “Activity (mm), 100 μg/disc” value (N. cyriacigeorgica) was 35-38 mm, the “kind of antibiotic activity” value [1] was “bactericidal” and the “Viral replication (%)” value (HIV virus (NL4.3-Ren); 0.19 μM) was 45%. The “Viral replication (%)” value (HIV virus (NL4.3-Ren); 0.39 μM) was 14%, the “Viral replication (%)” value (HIV virus (NL4.3-Ren); 0.78 μM) was 3% and the “Viral replication (%)” value (HIV virus (NL4.3-Ren); 1.56 μM) was 1%. For the same molecule, the “Viral replication (%)” value (HIV virus (NL4.3-Ren); 3.12 μM) was 0%, the “Viral replication (%)” value (HIV virus (NL4.3-Ren); 6.25 μM) was 0% and the “Viral replication (%)” value (HIV virus (NL4.3-Ren); 12.5 μM) was 0%. For the same molecule, the “Viral replication (%)” value (HIV virus (NL4.3-Ren); 25 μM) was 0%, the “Viral replication (%)” value (HIV virus (NL4.3-Ren); 50 μM) was 0% and the “Viral replication (%)” value (HIV virus (NL4.3-Ren); 100 μM) was 0%. The IC50 (HIV virus (NL4.3-Ren); Human immunodeficiency virus 1, MT2, read-out: IC50 nM) was 243 nM, the IC50 (HIV virus (NL4.3-Ren); Human immunodeficiency virus 1, PBMC, read-out: IC50 nM) was 362 nM and the “reduction of the titer” value [2] was 1 logarithm. For the same molecule, the IC50 (NCI-H1299) was 192 nM, the IC50 [3] was 333 nM and the “reduction of the titer” value [4] was 1 logarithm. The “Activity (mm), 100 μg/disc” value (N. carnea) was 48-50 mm, the “Activity (mm), 100 μg/disc” value (M. fortuitum) was 44 mm and the viability at 0.19 µM ([5]; 0.19 μM) was 114%. The viability at 0.39 µM ([5]; 0.39 μM) was 113%, the viability at 0.78 µM ([5]; 0.78 μM) was 109% and the viability at 1.56 µM ([5]; 1.56 μM) was 96%. The viability at 3.12 µM ([5]; 3.12 μM) was 78%, the viability at 6.25 µM ([5]; 6.25 μM) was 31% and the viability at 12.5 µM ([5]; 12.5 μM) was 7%. For the same molecule, the viability at 25 µM ([5]; 25 μM) was 4%, the viability at 50 µM ([5]; 50 μM) was 2% and the viability at 100 µM ([5]; 100 μM) was 0%. For the same molecule, the “Activity (mm), 100 μg/disc” value (A. baumannii) was 10-12 mm, the “reduction of the titer” value (HSV-1, strain F) was 1.5 logarithms and the IC50 (SK-UT-1) was 199 nM. For the same molecule, the “Activity (mm), 100 μg/disc” value (M. chelonae) was 63 mm, the inhibition at 0.2 µM ([6]; 200 nM) was 60% and the inhibition at 0.4 µM ([6]; 400 nM) was 92%. The “inhibition of HIV and VSV-pseudotyped HIV (dependence on virus entry)” value [7] was “inhibited both viruses with the same potency”, the “reduction of the titer” value [8] was 2.5 logarithms and the “concentration at which inhibition is obtained” value (CAL33) was 10 nM. For the same molecule, the “optimal concentration of inhibition” value (CAL33) was ≥ 50 nM and the IC50 (CAL33; Homo sapiens, CAL-33, 48 hours) was 42.8 nM.
